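Test compounds were applied to cells in 96-well plates for 48 hours at 5 doses. GI50 marks 50% less growth.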 The source made the active and inactive calls. Rule as the data show it: active = GI50 up to about 1.1 µM and inactive = higher. Some results are limits rather than exact numbers.

Experiment in all cases: NCI-60 cell line screen, 48 h
Assay [1] relates to UACC-62.
Assay [2] has as its system MDA-N.
For assay [3], the system named is U-251.
The test system of assay [4] is OVCAR-4.
Assay [5] deals with SF-295.
Assay [6] relates to SNB-75.
In assay [7] the test system is HCC 2998.
The test system of assay [8] is NCI-H460.
Assay [9] relates to SK-MEL-5.
In assay [10] the test system is HOP-62.
Assay [11] has as its system MDA-MB-231.
The subject of assay [12] is CCRF-CEM.
The subject of assay [13] is RXF 393.
Assay [14] concerns SW-620.
Assay [15] concerns SR.
Assay [16] deals with HCT-15.
The test system of assay [17] is SF-268.
Assay [18] concerns MCF7.
For assay [19], the system named is COLO 205.

In the case of `COC1(CC[C@H](C)COC2OC(CO)C(O)C(O)C2O)O[C@H]2C[C@H]3[C@@H]4CC=C5C[C@@H](OC6OC(CO)C(O)C(OC7OC(CO)C(O)C(O)C7O)C6OC6OC(C)C(O)C(O)C6O)CC[C@]5(C)[C@H]4CC[C@]3(C)[C@H]2[C@@H]1C` (stereo not given in full), the GI50 in [1] is 3.7 µM (inactive); in assay [2] it was 8.81 µM (inactive); in [3], 2.12 µM (inactive); in assay [4], 5.28 µM (inactive); in assay [5], 3.3 µM (inactive); in assay [6] it was 2.55 µM (inactive). In addition, the GI50 is 4.86 µM (inactive) in [7]; 3.62 µM (inactive) in assay [8]; 5.27 µM (inactive) in assay [9]; 5.51 µM (inactive) in [10]; 3.7 µM (inactive) in assay [11]; 3.17 µM (inactive) in [12]. Besides, the GI50 in assay [13] was 4.24 µM (inactive); in assay [14], 2.81 µM (inactive); in [15], > 100 µM (inactive); in [16], 2.96 µM; in [17], 4.89 µM (inactive); in assay [18], 9.2 µM (inactive). The GI50 in assay [19] is 4.08 µM (inactive).

For the compound `S=C(NCCc1ccccn1)c1nc[nH]c1C(=S)NCCc1ccccn1`, the GI50 in assay [1] was 22.7 µM (inactive); in assay [2] it was 41.7 µM (inactive); in assay [3], 45.5 µM (inactive); in assay [4], 33.8 µM (inactive); in assay [5], 25.1 µM (inactive); in assay [6], 27.5 µM (inactive). Further, the GI50 was 76.9 µM (inactive) in assay [7]; 24.1 µM (inactive) in assay [8]; 31.7 µM (inactive) in assay [9]; 37.1 µM (inactive) in assay [10]; > 100 µM (inactive) in assay [11]; 26.1 µM (inactive) in assay [12]. Further, the GI50 in assay [13] is 23 µM (inactive); in assay [14], 32.5 µM (inactive); in assay [15], 34 µM (inactive); in assay [16], 34.6 µM; in [17], 66.1 µM (inactive); in [18] it was 36.1 µM (inactive). In addition, in [19], the GI50 is 49.7 µM (inactive).

For the compound `CCn1c(=N)sc2nc3ccccc3n2c1=O`, the GI50 was > 100 µM (inactive) in [1]; > 100 µM (inactive) in assay [2]; > 100 µM (inactive) in assay [3]; > 100 µM (inactive) in assay [4]; > 100 µM (inactive) in assay [5]; 40 µM (inactive) in assay [6]. Also, the GI50 in [7] was > 100 µM (inactive); in assay [8], > 100 µM (inactive); in assay [9], > 100 µM (inactive); in [10], > 100 µM (inactive); in assay [11], > 100 µM (inactive); in assay [12], 90.8 µM (inactive). For the same compound, the GI50 is > 100 µM (inactive) in assay [13]; > 100 µM (inactive) in assay [14]; > 100 µM (inactive) in [15]; above 100 µM in assay [16]; > 100 µM (inactive) in assay [17]; 9.48 µM (inactive) in assay [18]. Also, in assay [19], the GI50 is > 100 µM (inactive).

As for `CCN(c1cccc(NC(=S)Nc2ccccc2N(CC)c2cc(-c3ccccc3)no2)c1)c1cc(-c2ccccc2)no1`, the GI50 in assay [1], in assay [2], in [3], in assay [4], in assay [5] and in assay [6] was > 100 µM (inactive) in each case. In addition, the GI50 in assay [7], in assay [8], in assay [9], in [10], in assay [11] and in assay [12] was > 100 µM (inactive) in each case. Further, the GI50 in [13] was > 100 µM (inactive); in assay [14] it was > 100 µM (inactive); in [15], > 100 µM (inactive); in assay [16], above 100 µM; in [17], > 100 µM (inactive); in [18], > 100 µM (inactive). The GI50 in [19] is > 100 µM (inactive).

`CCOc1c2ccsc2c(OCC)c2ccsc12`: the GI50 was 3.85 µM (inactive) in assay [1]; 0.94 µM (active) in [2]; 3.72 µM (inactive) in assay [3]; > 100 µM (inactive) in assay [4]; 2.57 µM (inactive) in assay [5]; 3.31 µM (inactive) in assay [6]. Moreover, the GI50 in [7] was 6.56 µM (inactive); in assay [8], 3.58 µM (inactive); in [9], 3.34 µM (inactive); in [10] it was 4.78 µM (inactive); in [11] it was 8.57 µM (inactive); in assay [12], 3.77 µM (inactive). The GI50 is 3.59 µM (inactive) in assay [13]; 3.72 µM (inactive) in assay [14]; 4.32 µM (inactive) in assay [15]; 4.06 µM in assay [16]; 9.82 µM (inactive) in assay [17]; 3.59 µM (inactive) in assay [18]. Also, in [19], the GI50 was 4.21 µM (inactive).

Turning to `CC(NNC(=O)c1ccncc1)c1ccc(Cl)cc1Cl` (stereo not given), the GI50 in [1] is > 100 µM (inactive); in assay [2], > 100 µM (inactive); in assay [3], > 100 µM (inactive); in assay [4], > 100 µM (inactive); in assay [5] it was 72.9 µM (inactive); in [6], > 100 µM (inactive). For the same compound, the GI50 in assay [7] is > 100 µM (inactive); in assay [8], 51.2 µM (inactive); in [9], 67.3 µM (inactive); in assay [10], 88.5 µM (inactive); in assay [11], > 100 µM (inactive); in [12] it was 49.4 µM (inactive). Besides, the GI50 was > 100 µM (inactive) in [13]; > 100 µM (inactive) in assay [14]; 55.3 µM (inactive) in [15]; 65.6 µM in [16]; > 100 µM (inactive) in [17]; > 100 µM (inactive) in assay [18]. The GI50 in [19] was > 100 µM (inactive).

Consider `O=C1Nc2ccccc2/C1=N/NS(=O)(=O)c1ccc(C(=O)O)cc1`, for which the GI50 in assay [1], in [2], in assay [3], in assay [4], in assay [5] and in assay [6] was > 100 µM (inactive) in each case. Moreover, the GI50 in [7], in [8], in assay [9], in assay [10], in [11] and in [12] was > 100 µM (inactive) in each case. Also, the GI50 in [13] is > 100 µM (inactive); in [14], > 100 µM (inactive); in [15], > 100 µM (inactive); in assay [16], above 100 µM; in [17], > 100 µM (inactive); in assay [18] it was > 100 µM (inactive). The GI50 in assay [19] was > 100 µM (inactive).

For the compound `Cc1ccc(S(=O)(=O)N/N=C2\CC3CC4CCC2C4C3)cc1` (stereo not given), the GI50 in assay [1], in assay [2], in assay [3], in [4], in assay [5] and in assay [6] was > 100 µM (inactive) throughout. For the same compound, the GI50 in assay [7], in assay [8], in [9], in [10], in assay [11] and in assay [12] was > 100 µM (inactive) each time. Moreover, the GI50 was > 100 µM (inactive) in assay [13]; > 100 µM (inactive) in assay [14]; > 100 µM (inactive) in assay [15]; above 100 µM in [16]; > 100 µM (inactive) in assay [17]; > 100 µM (inactive) in assay [18]. In addition, the GI50 in assay [19] was > 100 µM (inactive).

On to `FC(F)(F)C1(C(F)(F)F)O[Si]2(OC(C(F)(F)F)(C(F)(F)F)c3ccccc32)c2ccccc21`, for which the GI50 was 5.55 µM (inactive) in assay [1]; 13.4 µM (inactive) in assay [2]; 3.95 µM (inactive) in assay [3]; 11.4 µM (inactive) in assay [4]; 5.2 µM (inactive) in assay [5]; 14.6 µM (inactive) in assay [6]. The GI50 in [7] is 13.7 µM (inactive); in assay [8] it was 5.98 µM (inactive); in assay [9] it was 15.5 µM (inactive); in assay [10] it was 8.67 µM (inactive); in assay [11], 8.24 µM (inactive); in assay [12] it was 10.5 µM (inactive). In addition, the GI50 in assay [13] was 13.6 µM (inactive); in [14] it was 17.1 µM (inactive); in [15], 9.95 µM (inactive); in assay [16], 17 µM; in assay [17] it was 15.6 µM (inactive); in assay [18], 14.4 µM (inactive). In assay [19], the GI50 was 14.8 µM (inactive).

As for `N=C(N)NC1C(O)C(O)C(O)C(NC(=N)N)C1O` (stereo not given), the GI50 in [1], in [2], in assay [3], in assay [4], in assay [5] and in assay [6] was > 100 µM (inactive) each time. For the same compound, the GI50 in assay [7], in assay [8], in [9], in assay [10], in [11] and in assay [12] was > 100 µM (inactive) in each case. The GI50 is > 100 µM (inactive) in assay [13]; > 100 µM (inactive) in assay [14]; > 100 µM (inactive) in assay [15]; above 100 µM in assay [16]; > 100 µM (inactive) in [17]; > 100 µM (inactive) in [18]. Besides, in assay [19], the GI50 was > 100 µM (inactive).

(Values after ChEMBL document CHEMBL1201862, “PubChem BioAssay data set” (2004).)
